# Read-outs that look alike come from different tables or passages of the source.
# Assays:
# [1] = pH dependent hydrolysis of the hydrazone bond (MALDI-TOF-MS); format: physicochemical; conditions: HCl solution at pH 3
# HeLa cells [2] = experiment: Cell-based bioassay of chemically modified SO1861 with dianthin-EGF (Example 8)
# Description: HeLa cells were incubated for 72 h with the following constructs and cell viability before and after the 72 h-incubation was assessed. In the experiments, cells were exposed to 1.5 μM dianthin-EGF conjugate. A negative control were cells incubated with buffer vehicle and 10 microgram/ml saponin, without dianthin-EGF. Cell viability was set to 100% for the control in which both saponin and EGF-dianthin were omitted. […] Cell viability after 72 h was essentially 0%. For the chemically modified saponin variants, 10 microgram/ml saponin was tested in combination with 1.5 μM dianthin-EGF.
# A431 cells = format: cell-based, human; conditions: chloroquine coadministration, with cetuximab-saporin (FIG. 52)
# Description: Cells were seeded in a 96 well plate at 5.000-10.000 c/w in 100 μL/well and incubated overnight at 37° C. […] The media was removed from the cell culture plate and replaced by 180 μL culture media, followed by the addition of 20 μL treatment-mix/well. […] In the case that endosomal acidification inhibitors (chloroquine (Sigma Aldrich) or bafilomycin A1 (Enzo Life Sciences)) were used, the cell culture media in step 1 of treatment was replaced by 180 μL media containing 1 μM chloroquine or 0.2 μM bafilomycin A1. The plate was incubated for 1 hour at 37° C., before the 10× treatment-mix samples were added. The remaining incubation and treatment steps were performed according to standard procedures known in the field.
# [3] = test system: EGFR expressing cells (e.g. A431, HeLa); format: cell-based; parameters: key: Cell killing activity (+ or −); Cell killing activity (+ or −)
# Source text: The saponin is either linked to the ligand directly, or via a (cleavable) linker, via a scaffold, a carrier protein, etc., etc.
# HeLa cells [4] = experiment: Cell viability assay, inhibition of SO1861-mediated endosomal escape by polymeric structures (Example 19); format: cell-based; conditions: SO1861 series + […] dianthin-EGF, 500 nM PAMAM (derivative) or chloroquine, 667 nM dendron
# NIH-3T3 cells = conditions: saporins; cited from earlier work
# [5] = combinatory treatment with saponins; cited from earlier work
# mammalian cells = experiment: Cell-based bioassay of endosomal escape enhancement by QS-21; conditions: 2.5 microgram/ml; effector moiety EGF-dianthin
# Source text: The effector moiety exposed to the cells was EGF-dianthin.
# [6] = test system: SK-BR-3, JIMT-1, MDA-MB-468, A431, CaSki, HeLa, A2058, BT-474; experiment: Relative cell viability, mAb / toxin / mAb-toxin monotherapy (FIG. 11); format: cell-based; parameters: dose or concentration left out as unconfirmed; conditions: panel of cell lines
# Description: After treatment the cells were incubated for 72 hr at 37° C. before the cell viability was determined by a MTS-assay, performed according to the manufacturer's instruction (CellTiter 96® AQueous One Solution Cell Proliferation Assay, Promega). Briefly, the MTS solution was diluted 20× in DMEM without phenol red (PAN-Biotech GmbH) supplemented with 10% FBS (PAN-Biotech GmbH). […] Subsequently, the optical density at 492 nm was measured on a Thermo Scientific Multiskan FC plate reader (Thermo Scientific). For quantification the background signal of ‘medium only’ wells was subtracted from all other wells, before the ratio of untreated/treated cells was calculated, by dividing the background corrected signal of untreated wells over the background corrected signal of the treated wells.
compound,measurement,setting,value
CC(=O)OC1C(C)OC(OC2C(C)OC(OC(=O)[C@]34CCC(C)(C)CC3C3=CCC5[C@@]6(C)CC[C@H](OC7OC(C(=O)O)C(O)C(OC8OCC(O)C(O)C8O)C7OC7OC(CO)C(O)C(O)C7O)[C@@](C)(/C=N/NC(=O)CCCCCN7C(=O)C=CC7=O)C6CC[C@@]5(C)[C@]3(C)C[C@H]4O)C(OC3OC(C)C(OC4OCC(O)C(OC5OC(CO)C(O)C(O)C5O)C4O)C(O)C3O)C2O)C(O)C1OC1OCC(O)C(O)C1O (some centres unmarked) [SO1861-EMCH],hydrolysis of the hydrazone bond (in words),[1],responsive towards hydrolysis and gets cleaved
same,cell viability (in words),HeLa cells [2],reduced cell viability
same,activity when endosomal acidification is blocked (in words),A431 cells,strongly reduces the activity
same,Cell killing activity,[3]; 10 μg/ml SO1861 (conjugate) + […] EGFdianthin,+
same,Cell killing activity,"[3]; 10 μg/ml SO1861 (conjugate), without EGFdianthin",−
CCN(CC)CCCC(C)Nc1ccnc2cc(Cl)ccc12 (centres unmarked) [chloroquine],inhibition of SO1861-mediated endosomal escape of the targeted toxin (in words),HeLa cells [4],inhibit the SO1861-mediated endosomal escape of the targeted toxin
CC1(C)[C@@H](O[C@H]2O[C@H](C(=O)O)[C@@H](O)[C@H](O)[C@H]2O[C@@H]2O[C@H](C(=O)O)[C@@H](O)[C@H](O)[C@H]2O)CC[C@]2(C)[C@H]3C(=O)C=C4[C@@H]5C[C@@](C)(C(=O)O)CC[C@]5(C)CC[C@@]4(C)[C@]3(C)CC[C@@H]12 [glycyrrhizic acid],enhancing effect on toxin toxicity (in words),NIH-3T3 cells,do hardly have any positive effect
Pseudomonas exotoxin A: bacterial toxin,enhancement of cytotoxicity by saponins (in words),[5],remained unaffected
QS-21,endosomal escape enhancement (in words),mammalian cells,capable of enhancing endosomal escape
helianthoside,enhancing effect on toxin toxicity (in words),NIH-3T3 cells,do hardly have any positive effect
saporin,relative cell viability (in words),[6],do not or hardly have any influence on cell viability

# Source: patent US20220249674A1, “BIOACTIVE SAPONIN LINKED TO A FUNCTIONAL MOIETY” (priority 2019, published 2022)
